10 molecules from patent US11780830B2, “Triazolone derivatives or salts thereof and pharmaceutical compositions comprising the same” (YUHAN CORPORATION, priority 2018, dated 2023) can be followed below.

Holding throughout (assay type): biochemical
One experiment concerns the target T1, recombinant human VAP-1 (Homo sapiens, UniProt Q16853).
T1 construct: purchased R&D systems
T1 sequence (Q16853 1-763): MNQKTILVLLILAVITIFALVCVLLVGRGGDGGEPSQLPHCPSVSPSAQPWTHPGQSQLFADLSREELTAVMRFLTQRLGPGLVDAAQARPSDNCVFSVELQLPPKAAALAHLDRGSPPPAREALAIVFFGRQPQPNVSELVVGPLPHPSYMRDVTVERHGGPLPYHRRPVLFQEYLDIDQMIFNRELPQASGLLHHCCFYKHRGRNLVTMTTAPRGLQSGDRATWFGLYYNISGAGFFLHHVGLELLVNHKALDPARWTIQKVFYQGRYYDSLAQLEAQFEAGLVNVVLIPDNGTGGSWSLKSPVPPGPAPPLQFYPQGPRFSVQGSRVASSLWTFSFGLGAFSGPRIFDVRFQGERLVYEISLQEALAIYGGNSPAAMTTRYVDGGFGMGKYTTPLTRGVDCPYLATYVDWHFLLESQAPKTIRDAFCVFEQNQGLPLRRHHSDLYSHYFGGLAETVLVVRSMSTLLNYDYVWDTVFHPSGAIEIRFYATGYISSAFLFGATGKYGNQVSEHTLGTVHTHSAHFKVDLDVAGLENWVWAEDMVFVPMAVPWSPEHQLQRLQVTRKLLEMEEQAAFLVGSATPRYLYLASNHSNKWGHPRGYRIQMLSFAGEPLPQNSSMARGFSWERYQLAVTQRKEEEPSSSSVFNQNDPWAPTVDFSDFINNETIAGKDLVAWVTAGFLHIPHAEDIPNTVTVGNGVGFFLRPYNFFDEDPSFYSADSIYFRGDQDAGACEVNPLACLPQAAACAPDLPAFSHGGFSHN
Nature of the experiment: Activity on recombinant human VAP-1, HRP-coupled Amplex Red hydrogen peroxide assay. Conditions: substrate 1 mM benzylamine; compound incubated with enzyme at 37° C. for 30 minutes; pH 7.4; read-out: Inhibitory Activity (IC50, nM) human VAP-1. The procedure, abridged: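 Dose-response IC50 determined from reduction in resorufin signal rate (544/590 nm, 1-2 h), with 30 min compound preincubation at 37 °C and 1 mM benzylamine as substrate.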

The target in experiment [1] is T2, recombinant human MAO-A (monoamine oxidase-A) (Homo sapiens, UniProt P21397).
T2 construct: purchased Sigma-Aldrich
T2 sequence (P21397 1-527): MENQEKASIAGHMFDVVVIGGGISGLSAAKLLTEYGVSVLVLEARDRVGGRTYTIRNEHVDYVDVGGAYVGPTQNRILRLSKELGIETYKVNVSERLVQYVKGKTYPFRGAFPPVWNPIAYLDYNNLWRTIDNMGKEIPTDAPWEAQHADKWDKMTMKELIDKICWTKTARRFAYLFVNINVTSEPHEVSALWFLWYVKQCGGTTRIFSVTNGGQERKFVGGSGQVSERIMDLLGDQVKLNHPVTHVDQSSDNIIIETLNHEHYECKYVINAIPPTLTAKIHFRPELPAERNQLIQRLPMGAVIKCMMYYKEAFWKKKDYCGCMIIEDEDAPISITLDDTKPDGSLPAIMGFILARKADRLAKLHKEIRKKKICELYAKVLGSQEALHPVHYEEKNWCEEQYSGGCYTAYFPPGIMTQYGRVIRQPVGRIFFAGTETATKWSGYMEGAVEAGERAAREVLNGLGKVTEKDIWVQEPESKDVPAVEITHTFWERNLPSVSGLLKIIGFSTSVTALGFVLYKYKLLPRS
Nature of the experiment: Activity on recombinant human MAO-A, method similar to the VAP-1 assay. Conditions: substrate 0.5 mM tyramine; read-out: Inhibitory Activity (IC50, nM) MAO-A. The procedure, abridged:
(§1)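 Amplex Red/HRP coupled read-out of H2O2 with 0.5 mM tyramine for MAO-A or 1 mM benzylamine for MAO-B, following a 30-min compound–enzyme preincubation at 37° C. IC50 from percent inhibition of signal rate relative to uninhibited control.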

The target in experiment [2] is T3, recombinant human MAO-B (monoamine oxidase-B) (Homo sapiens, UniProt P27338).
T3 construct: purchased Sigma-Aldrich
T3 sequence (P27338 1-520): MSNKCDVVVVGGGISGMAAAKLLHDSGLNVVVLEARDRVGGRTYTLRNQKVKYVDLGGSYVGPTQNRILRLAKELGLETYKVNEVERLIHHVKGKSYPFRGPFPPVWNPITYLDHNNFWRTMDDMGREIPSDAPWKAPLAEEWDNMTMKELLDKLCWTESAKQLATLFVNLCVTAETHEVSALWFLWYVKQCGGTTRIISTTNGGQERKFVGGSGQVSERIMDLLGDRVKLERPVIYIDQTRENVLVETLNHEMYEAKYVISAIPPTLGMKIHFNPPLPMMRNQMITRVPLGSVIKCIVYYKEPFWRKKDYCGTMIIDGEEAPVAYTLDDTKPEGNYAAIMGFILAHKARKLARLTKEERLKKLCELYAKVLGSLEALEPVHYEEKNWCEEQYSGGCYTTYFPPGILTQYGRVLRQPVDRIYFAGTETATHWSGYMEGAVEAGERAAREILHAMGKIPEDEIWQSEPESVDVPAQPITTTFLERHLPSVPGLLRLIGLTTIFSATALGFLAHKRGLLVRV
The experiment is described as follows: Activity on recombinant human MAO-B, method similar to the VAP-1 assay. Conditions: substrate 1 mM benzylamine; read-out: Inhibitory Activity (IC50, nM) MAO-B. The procedure, abridged: as §1

Experiment [3] has as its target T4, recombinant human DAO (diamine oxidase) (Homo sapiens, UniProt P19801).
T4 construct: purchased R&D systems
T4 sequence (P19801 20-751): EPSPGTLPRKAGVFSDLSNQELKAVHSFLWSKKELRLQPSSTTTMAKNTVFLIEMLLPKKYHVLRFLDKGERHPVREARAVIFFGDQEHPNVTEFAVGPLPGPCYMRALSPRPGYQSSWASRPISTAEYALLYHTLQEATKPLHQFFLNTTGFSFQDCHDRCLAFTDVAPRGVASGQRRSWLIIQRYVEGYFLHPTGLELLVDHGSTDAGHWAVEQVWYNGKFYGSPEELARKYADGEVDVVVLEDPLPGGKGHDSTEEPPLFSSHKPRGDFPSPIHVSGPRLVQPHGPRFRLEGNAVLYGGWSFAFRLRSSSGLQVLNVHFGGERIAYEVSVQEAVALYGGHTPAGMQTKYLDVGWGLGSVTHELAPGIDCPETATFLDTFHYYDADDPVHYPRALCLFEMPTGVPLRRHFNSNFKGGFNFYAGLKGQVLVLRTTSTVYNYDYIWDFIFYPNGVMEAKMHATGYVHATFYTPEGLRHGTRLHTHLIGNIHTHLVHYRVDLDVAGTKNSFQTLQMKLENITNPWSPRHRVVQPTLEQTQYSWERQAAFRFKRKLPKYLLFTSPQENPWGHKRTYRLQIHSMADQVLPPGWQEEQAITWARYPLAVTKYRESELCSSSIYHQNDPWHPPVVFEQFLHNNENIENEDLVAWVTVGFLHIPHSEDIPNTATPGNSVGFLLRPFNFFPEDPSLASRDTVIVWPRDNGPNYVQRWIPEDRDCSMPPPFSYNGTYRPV
The experiment is described as follows: Activity on recombinant human DAO, method similar to the VAP-1 assay. Conditions: substrate 1 mM putrescine; read-out: Inhibitory Activity (IC50, nM) DAO. The method in brief: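 Inhibition of recombinant human diamine oxidase (DAO, R&D systems) was assessed by the same approach as the VAP-1 assay, using 1 mM putrescine as substrate. Hydrogen peroxide formed was detected through an HRP-coupled Amplex Red reaction yielding fluorescent resorufin, read at 544 nm excitation and 590 nm emission. IC50 values came from four-parameter logistic fitting in GraphPad Prism.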

Where a name gives a salt, the structure may show the parent alone.

As a reminder, the IC50 is the midpoint of a concentration-inhibition curve. As to `Cc1cc(-c2ccc3sc(Cn4cnn(C/C(=C/F)CN)c4=O)cc3c2)cc2c1NC(=O)CC2` [Example 210, 6-[2-({1-[(2E)-2-(aminomethyl)-3-fluoroprop-2-en-1-yl]-5-oxo-1,5-dihydro-4H-1,2,4-triazol-4-yl}methyl)-1-benzothiophen-5-yl]-8-methyl-3,4-dihydroquinolin-2(1H)-one], the IC50 on recombinant human VAP-1 is 1.7 nM; in experiment [1], above 100000 nM; in experiment [2], 9200 nM; in experiment [3] it was 590 nM.
Regarding `NC/C(=C\F)Cn1ncn(Cc2ccc(-c3ccc(-c4ccon4)cc3)s2)c1=O` [Example 40, 2-[(2E)-2-(aminomethyl)-3-fluoroprop-2-en-1-yl]-4-(5-[4-(1,2-oxazol-3-yl)phenyl]thiophen-2-ylmethyl)-2,4-dihydro-3H-1,2,4-triazol-3-one hydrochloride], the IC50 on recombinant human VAP-1 was 0.6 nM; in experiment [1] it was above 100000 nM; in experiment [2], 110 nM; in experiment [3], 370 nM.
In the case of `NC/C(=C\F)Cn1ncn(Cc2cc3cc(-c4ccc(C(F)(F)F)nc4)ccc3s2)c1=O` [Example 209, 2-[(2E)-2-(aminomethyl)-3-fluoroprop-2-en-1-yl]-4-({5-[6-(trifluoromethyl)pyridin-3-yl]-1-benzothiophen-2-yl}methyl)-2,4-dihydro-3H-1,2,4-triazol-3-one], the IC50 at recombinant human VAP-1 is 2.3 nM; in experiment [1] it was above 100000 nM; in experiment [2] it was 990 nM; in experiment [3], 1500 nM.
Turning to `NC/C(=C\F)Cn1ncn(Cc2ccc(C#CCN3CCS(=O)(=O)CC3)s2)c1=O` [Example 132, 2-[(2E)-2-(aminomethyl)-3-fluoroprop-2-en-1-yl]-4-(5-[3-(1,1-dioxidothiomorpholin-4-yl)prop-1-yn-1-yl]thiophen-2-ylmethyl)-2,4-dihydro-3H-1,2,4-triazol-3-one hydrochloride], the IC50 is 3.1 nM on recombinant human VAP-1, above 100000 nM in experiment [1], 2500 nM in experiment [2] and 1400 nM in experiment [3].
As for `Cc1c(-c2ccc(Cn3cnn(C/C(=C/F)CN)c3=O)s2)ccc2c1NCCO2` [Example 108, 2-[(E)-2-(aminomethyl)-3-fluoro-allyl]-4-[[5-(5-methyl-3,4-dihydro-2H-1,4-benzoxazin-6-yl)-2-thienyl]methyl]-1,2,4-triazol-3-one], the IC50 at recombinant human VAP-1 amounted to 0.8 nM; in experiment [1], 21000 nM; in experiment [2] it was 3200 nM; in experiment [3], 250 nM.
The like results for `NC/C(=C\F)Cn1ncn(Cc2ccc(-c3cc(F)c4[nH]c(=O)ccc4c3)s2)c1=O` [Example 82, 6-[5-(1-[(2E)-2-(aminomethyl)-3-fluoroprop-2-en-1-yl]-5-oxo-1,5-dihydro-4H-1,2,4-triazol-4-ylmethyl)thiophen-2-yl]-8-fluoroquinolin-2(1H)-one hydrochloride] were, in that order, 0.1 nM, above 100000 nM, 6300 nM and 300 nM.
As for `CN1C(=O)CCc2cc(-c3ccc(CCn4cnn(C/C(=C/F)CN)c4=O)s3)ccc21` [Example 219, 6-[5-(2-{1-[(2E)-2-(aminomethyl)-3-fluoroprop-2-en-1-yl]-5-oxo-1,5-dihydro-4H-1,2,4-triazol-4-yl}ethyl)thiophen-2-yl]-1-methyl-3,4-dihydroquinolin-2(1H)-one], the IC50 at recombinant human VAP-1 was 0.5 nM; in experiment [1] it was above 100000 nM; in experiment [2], 38000 nM; in experiment [3] it was 120 nM.
Consider `NC/C(=C\F)Cn1ncn(Cc2ccc(-c3ccc4c(c3)OCC(=O)N4)s2)c1=O` [Example 84, 7-[5-(1-[(2E)-2-(aminomethyl)-3-fluoroprop-2-en-1-yl]-5-oxo-1,5-dihydro-4H-1,2,4-triazol-4-ylmethyl)thiophen-2-yl]-2H-1,4-benzoxazin-3(4H)-one hydrochloride], for which the IC50 at recombinant human VAP-1 was 0.2 nM; in experiment [1], 63000 nM; in experiment [2], above 10000 nM; in experiment [3] it was 1300 nM.
As to `NC/C(=C\F)Cn1ncn(CCc2cccs2)c1=O` [Example 141, 2-[(2E)-2-(aminomethyl)-3-fluoroprop-2-en-1-yl]-4-[2-(thiophen-2-yl)ethyl]-2,4-dihydro-3H-1,2,4-triazol-3-one], the IC50 was 9.2 nM on recombinant human VAP-1, above 100000 nM in experiment [1], above 10000 nM in experiment [2] and 4200 nM in experiment [3].
The corresponding values for `NC/C(=C\F)Cn1ncn(Cc2ccc(-c3ccc(-c4noc(C5CC5)n4)cc3)s2)c1=O` [Example 35, 2-[(2E)-2-(aminomethyl)-3-fluoroprop-2-en-1-yl]-4-(5-[4-(5-cyclopropyl-1,2,4-oxadiazol-3-yl)phenyl]thiophen-2-ylmethyl)-2,4-dihydro-3H-1,2,4-triazol-3-one hydrochloride] are 0.89 nM, 39600 nM, 247 nM and 67 nM.
